{"source": "patent US8148359B2", "about": "“Chelating agents of metal ions, their methods of preparation and their applications” (Commissariat a l'Energie Atomique, priority 2009, dated 2012)", "key": {"[1]": {"assay": "Apparent complexation constants of known chelating agents, Hg(II)", "assay_type": "binding", "details": "pH = 7.4; log Kapp(Hg) - log Kapp(Zn)", "description": "(§1) In general, the formation of a complex from a metal M and n ligands L is written: M+nL⇄[M(L)n]\n(§2) Associated with this reaction is an apparent complexation constant log Kapp, where: Kapp=[ML]/[M][L]tot in which: • [ML] is the concentration of complex, • [M] is the concentration of metal, and • [L]tot is the concentration of […] ligand (whatever its protonated form)."}, "[2]": {"assay": "Cu(I) affinity by competition with bathocuproine disulfonate (BCS), UV-visible", "assay_type": "binding", "details": "for BCS equivalents (number of equivalents of BCS relative to Cu necessary to displace 50% of the copper complexed by the ligand): [Cu]0 = 0.9 [L]o, 20 mM phosphate buffer, pH 7.4, 298 K; for Cu/Zn Sel. (log Kapp(Cu) - log Kapp(Zn)): Cu(I) versus Zn(II); for Kapp for Cu(I): pH 7.4, 20 mM phosphate buffer", "procedure": "Since the —SH thiol functions of the chelating agents are capable of becoming oxidized in air, all the solutions were prepared in a glovebox under an argon atmosphere. Ligand solutions were then prepared, before each experiment, using water that had been deoxygenated and purified with a Millipore Milli-Q® system containing 20 mM of a solution of phosphate buffer (pH=7.4) and of acetonitrile (v/v: 9/1).\nThis method uses 5,5′-dithiobis-2-nitrobenzoic acid (DNTB) as indicator, each free thiol group present in the ligand producing 1 equivalent of TNB^2− (ε^412 nm (TNB^2−)=14 150 M^−1.cm^−1, ε^412 nm being the molar extinction coefficient for TNB^2− at 412 nm). The concentrations of the ligand solution are between 30 and 100 μm.\nThe solutions of Cu(I) copper were prepared by dissolving an appropriate amount of Cu(CH3CN)4 PF6 in deoxygenated acetonitrile. The final concentration is determined by adding an excess of sodium bathocuproine disulfonate (Na2BCS) and by measuring the absorbance of the Cu(BCS)2^3− (λmax=483 nm, ε=13 300 M^−1.cm^−1).\nThe affinity constants were measured by means of a known competitor having a strong affinity for Cu(I), bathocuproine disulfonate (BCS), which forms Cu(I) complexes of known stability according to the reaction below:\nThe higher this percentage, the higher the affinity of the sulfur-containing ligand for Cu(I).\nThe complexes of Cu(I) copper with the ligands are quantitatively determined with bathocuproine disulfonate (BCS) with the aim of measuring their affinity constants. […] The formation of the complex is then carried out by stirring the mixture for 10 minutes under argon.\nAliquots of a solution of bathocuproine disulfonate (BCS) in the same buffer solution are then added to the ligand-copper complex.\nThe UV-visible spectra are then recorded, and the absorbance stability is verified before the addition of the other aliquots."}, "[3]": {"assay": "Hg(II) affinity by competition with EDTA", "assay_type": "binding", "procedure": "For Hg(II), which has a very high affinity for thiolate ligands, we performed a competition with EDTA having a known affinity constant (cf. Table IV) according to the following reaction: HgL+EDTA→L+HgEDTA\nA solution of mercury is prepared by dissolving HgCl2 in water. An HgL complex is formed by adding aliquots of this mercury solution to a solution of ligand in a 20 mM phosphate buffer solution at pH=7.4, up to 0.9 equivalent. The change in the LMCT band for Hg(II) at 290 nm is subsequently followed by titration with a 5 mM solution of Na2EDTA."}, "[4]": {"details": "pH = 7.4; difference matches the Cu(II) and Zn(II) values of the table", "description": "as §1, §2"}, "[5]": {"assay": "Apparent complexation constants of known chelating agents, Cu(I)", "assay_type": "binding", "details": "pH = 7.4; difference matches the Cu(I) and Zn(II) values of the table", "text": "Associated with this reaction is an apparent complexation constant log Kapp, where: Kapp=[ML]/[M][L]tot in which: • [ML] is the concentration of complex, • [M] is the concentration of metal, and • [L]tot is the concentration of free ligand (whatever its protonated form)."}}, "note": "Read-outs that look alike come from different tables or passages of the source."}
{"smiles": "OCC(S)CS", "note": "(stereo not drawn) [BAL, 2,3-dimercaptopropanol]", "values": [{"measurement": "Hg/Zn selectivity", "setting": "[1]", "result": 12.2}]}
{"smiles": "O=C(CN(CC(=O)NC(CS)C(=O)O)CC(=O)NC(CS)C(=O)O)NC(CS)C(=O)O", "note": "(stereo not drawn) [Compound 3, NTA(CysOH)3]", "values": [{"measurement": "BCS equivalents (number of equivalents of BCS relative to Cu necessary to displace 50% of the copper complexed by the ligand)", "setting": "[2]", "result": 3.5, "unit": "equivalents"}]}
{"smiles": "CCOC(=O)C(CS)NC(=O)CN(CC(=O)NC(CS)C(=O)OCC)CC(=O)NC(CS)C(=O)OCC", "note": "(stereo not drawn) [Compound 4, NTA(CysOC2H5)3]", "values": [{"measurement": "Cu/Ca Sel. (log Kapp(Cu) - log Kapp(Ca))", "setting": "[2]; Cu(I) versus Ca(II)", "result": ">16"}, {"measurement": "Cu/Zn Sel. (log Kapp(Cu) - log Kapp(Zn))", "setting": "[2]", "result": 9.9}, {"measurement": "BCS equivalents (number of equivalents of BCS relative to Cu necessary to displace 50% of the copper complexed by the ligand)", "setting": "[2]", "result": 57, "unit": "equivalents"}, {"measurement": "Kapp for Cu(I)", "setting": "[2]", "result": "10^19"}, {"measurement": "Hg/Ca Sel. (log Kapp(Hg) - log Kapp(Ca))", "setting": "[3]; Hg(II) versus Ca(II)", "result": ">19.5"}, {"measurement": "Hg/Zn Sel. (log Kapp(Hg) - log Kapp(Zn))", "setting": "[3]; Hg(II) versus Zn(II)", "result": ">13.4"}]}
{"smiles": "NC(=O)[C@H](CS)NC(=O)CN(CC(=O)N[C@@H](CS)C(N)=O)CC(=O)N[C@@H](CS)C(N)=O", "note": "[Compound 6, NTA(CysNH2)3]", "values": [{"measurement": "BCS equivalents (number of equivalents of BCS relative to Cu necessary to displace 50% of the copper complexed by the ligand)", "setting": "[2]", "result": 50, "unit": "equivalents"}, {"measurement": "Kapp for Cu(I)", "setting": "[2]", "result": "10^19"}]}
{"smiles": "CCOC(=O)[C@H](CS)NC(=O)CN1CCN(CC(=O)N[C@@H](CS)C(=O)OCC)CCN(CC(=O)N[C@@H](CS)C(=O)OCC)CC1", "note": "[Compound 9, NOTA(CysOC2H5)3]", "values": [{"measurement": "Cu/Zn Sel. (log Kapp(Cu) - log Kapp(Zn))", "setting": "[2]", "result": "7.5-9.5"}, {"measurement": "BCS equivalents (number of equivalents of BCS relative to Cu necessary to displace 50% of the copper complexed by the ligand)", "setting": "[2]", "result": 12, "unit": "equivalents"}]}
{"smiles": "O=C(O)CN(CCN(CC(=O)O)CC(=O)O)CC(=O)O", "note": "[EDTA, ethylenediaminetetraacetic acid]", "values": [{"measurement": "Cu/Zn selectivity", "setting": "[4]", "result": 2.3}, {"measurement": "Hg/Zn selectivity", "setting": "[1]", "result": 5}]}
{"smiles": "CC(C)(S)[C@@H](N)C(=O)O", "note": "[Pen, D-penicillamine]", "values": [{"measurement": "Hg/Zn selectivity", "setting": "[1]", "result": 9.1}, {"measurement": "Cu/Zn selectivity", "setting": "[5]", "result": 2.5}]}
{"smiles": "NCCNCCNCCN", "note": "[Trien, triethylenetetramine]", "values": [{"measurement": "Cu/Zn selectivity", "setting": "[4]", "result": 8.1}, {"measurement": "Hg/Zn selectivity", "setting": "[1]", "result": 12.7}]}
